“Also recorded” adds a separate entry of the source.
How the values were obtained:
[1] = system: C8161 cells; assay type: cell-based, human; details: 50 μM CB1954 alone
[2] = Scheduling experiment: tolerability of injections; assay type: in vivo, athymic nude mice; details: 80 mg/kg intra-peritoneal in 10% acetone/peanut oil
Protocol: (§1) The treatment groups were administered with a single direct intratumoural injection of the virus and dose determined for that group. The virus was diluted PBS+10% serum. ‘No virus’ control groups received an intratumoural injection of 100 μl of PBS+10% serum. This day was designated as Experimental Day 0.
Some tumours bleed slightly after injection but not to a great degree. […] In all the tumours that bleed slightly, the following day the healing process had begun and within 3-5 days there was little evidence of any puncture wound on any tumour.
(§2) Injections of CB1954 were given to the appropriate groups at days 2, 10 and 15. A dose of 80 mg/kg—the equivalent of approx. 2 mg per mouse—was given. The powdered form of the CB1954 drug (from Sigma) was dissolved in acetone to 10% of the final volume (10 μl per 2 mg). The volume was then made up to 2 mg CB1954 in 100 μl using peanut oil. A syringe was used to mix the drug as peanut oil is thick and viscous. The drug was made up fresh every time.
(§3) The appropriate groups were then injected intra-peritoneal with this solution. Control groups which were not receiving drug were injected intra-peritoneal with a 100 μl solution of 10% acetone in peanut oil.

[3] = system: A2780 xenograft; experiment: Scheduling experiment: tumour volume after virus and CB1954; assay type: in vivo, athymic nude mice
Protocol: Mice were randomized into treatment groups (treatment regimes shown in Table 2) of 3 animals when tumour diameters were approximately 5 mm (tumour volume […]).
as §1, §2, §3

[4] = system: A2780 xenografts; experiment: Naked DNA experiment: CMV-ntr plasmid and CB1954 in xenograft tumours; assay type: in vivo, mice; details: single agent: CMV-ntr 0.2 mg DNA intratumoural Day 0, or CB1954 80 mg/kg intra-peritoneal Day 2
Protocol: In order to check the alterations in tumour growth are due to the virus itself and not a result of the CMV-ntr plasmid DNA that had been introduced to the HSV 1716 virus, an experiment was set up looking at the effect of the CMV-ntr plasmid DNA alone and in combination with the prodrug CB1954.
Mice were randomised into treatment groups of 6 animals each when tumour diameters are approximately 5 mm (this is Day 0). […] Two groups of mice were administered CMV-ntr plasmid by direct intratumoural injection at a dose of 0.2 mg DNA per injection. One of these groups was then administered with a single dose of 80 mg/kg of CB1954 on Day 2 by intra-peritoneal injection. […] Animals were weighed daily (FIG. 23) and daily caliper measurements performed until the tumour sizes were in the region of 20 mm by 20 mm. Tumour volumes were estimated from these measurements (volume=[…]) (FIG. 24). In addition any toxicity from these administered agents was determined.

[5] = system: confluent 3T6 cells; assay type: cell-based; details: 50 μM CB1954 alone

## NC(=O)c1cc(N2CC2)c([N+](=O)[O-])cc1[N+](=O)[O-] [CB1954]
[1]
  cell death: no effect
[2]
  body weight after intra-peritoneal injection: did not lose any body weight
  swelling or irritation at the site of injection: No swelling or irritation
[3]; CB1954 alone, 80 mg/kg intra-peritoneal, no virus (groups 5, 6, 7, 13)
  effect on tumour growth: little effect on tumour growth
[3]; CB1954 given Day 2 post viral injection versus Day 10
  tumour growth delay by timing of prodrug: tumour growth was not delayed as much as if the drug was given at a later date
[4]
  anti-tumour activity as determined by tumour regression: neither the CMV-ntr alone, CB1954 alone or the combination of both CMV-ntr and CB1954, has any anti-tumour activity
[5]
  cell death: no effect; also recorded: does not result in any significant cell death

Reference: patent US20070110720A1, “Vectors, mutant viruses and methods for generating mutant viruses” (priority 2003, published 2007)
